A short description of data set [1]: Equilibration in solvents and buffers: form conversion.
The nature of data set [2]: Approximate solubility in water and at pH 1 (supplemental testing). Type of data set: physicochemical. The note with it: for Form by XRPD of solid residue, Water: after equilibration in water > 20 hours. As to the method:
(§1) An approximate solubility of the below-listed salts was determined in water and at pH 1 by suspending 5-15 mg of the salt in 1 mL of solvent. The samples were allowed to equilibrate at ambient temperature for at least 20 hours. The supernatant was filtered and used for the solubility determination, which was done gravimetrically, for the aqueous solubility, and by UV-VIS spectroscopy for pH 1. The solid residue was analyzed by XRPD. […] They were subsequently analyzed by XRPD and TGA, if the latter deemed necessary. Only irreversible or slowly reversible events can be detected.

Data set [3] in a line: Solid samples held at 93% r.h. (XRPD, TGA). The note with it: 93% r.h., 10 days. Type of data set: physicochemical. As to the method: as §1
A short description of data set [4]: Stability of mixtures with excipients. Type of data set: physicochemical. As to the method:
(§2) All samples were prepared/diluted to a concentration of 0.2 mg/mL in methanol prior to analysis by HPLC. A freshly prepared sample of each salt was used as the reference standard for external standard calibration analysis.

Data set [5] can be described thus: Solid-state stability. The format is physicochemical. The note with it: for Bulk stability (XRPD): 1 week. As to the method:
as §2

A short description of data set [6]: Intrinsic dissolution rate, rotation disk method. The note with it: for Intrinsic Dissolution Rate: 37° C., 200 r.p.m. Type of data set: physicochemical. As to the method: Intrinsic Dissolution: […] […] Pellets of the other salts remained intact for at least several minutes enabling the determination of the intrinsic dissolution rate. Dissolution rate studies were performed using the rotation disk method ([…] Instrument). A single rotation speed of 200 r.p.m. was used to dissolve drug substance into a 500 mL vessel at 37° C. The solution was continuously pumped through a UV cell measurement and returned to the dissolution vessel.

Data set [7] is described as follows: Solution stability (HPLC). The format is physicochemical. As to the method: as §2
The nature of data set [8]: pH of saturated solution or 1% suspension in water. The format is physicochemical. The note with it: room temperature. As to the method:
pH Value: The pH at room temperature of a saturated solution or 1% suspension of the drug substance in water was recorded.

Data set [9] can be described thus: pH of saturated solution or 1% suspension in water. The format is physicochemical. Particulars: In pH = 6.8 buffer.
Setting [10] is: Mixture 1: 50% PVP + 50% Crospovidone, 50° C./75% r.h., 2 weeks.
[11] abbreviates: Mixture 2: 50% Starch 1500 + 5% MCC 102, 50° C./75% r.h., 2 weeks.
Setting [12] is: Mixture 3: 5% PVP + 5% Crospovidone + 10% Starch 1500 + 80% MCC 102, 50° C./75% r.h., 2 weeks.
Where [13] appears, read: Mixture 4: 99% Lactose + 1% BHT/BHA, 50° C./75% r.h., 2 weeks.
Setting [14] is: Mixture 5: 99% Mannitol + 1% BHT/BHA, 50° C./75% r.h., 2 weeks.
Where [15] appears, read: Mixture 6: 50% Mannitol + 47% HPCLH21 + 1% BHT/BHA + 2% Magnesium Stearate, 50° C./75% r.h., 2 weeks.
Setting [16] is: Mixture 7: 50% Cetyl Alcohol + 49% HPCLH21 + 1% Magnesium Stearate, 50° C./75% r.h., 2 weeks.
Setting [17] is: Mixture 8: 100% PEG 3350, 50° C./75% r.h., 2 weeks.
Setting [18] is: Bulk stability, 2 weeks, 50° C.
The mark [19] stands for this setting: Bulk stability, 2 weeks, 50° C./20% water.
Where [20] appears, read: Bulk stability, 2 weeks, 50° C./75% r.h.
[21] abbreviates: Light study, 1200 kLux (300-800 nm).
Setting [22] is: 2 mg/mL in methanol, 1 week at 50° C.
[23] abbreviates: 2 mg/mL in water, 1 week at 50° C.
[24] abbreviates: 2 mg/mL, 100 mM lactate buffer pH 3.5, 1 week at 50° C.
The mark [25] stands for this setting: 2% in 0.5% HPMC 4000, 1 day at RT.
The mark [26] stands for this setting: 2% in 0.5% Klucel HF, 1 day at RT.
Where [27] appears, read: 2% in 0.8% Tween 80, 1 day at RT.
Where [28] appears, read: 5% solution, 1 day at RT (diluted 1:100 in pH 6.8 buffer).

Counter-ions that a name gives are not always drawn.

For `Cc1[nH]c2ccccc2c1CCNCc1ccc(/C=C/C(=O)NO)cc1` [Form A of the mesylate salt], the conversion upon equilibration result is “to the hydrochloride salt” in [1] (0.1 N HCl), “to the free base” in [1] (phosphate buffer (pH=6.8)) and “converts to form B” in data set [1] (water / aqueous solutions).
Regarding “2:1 malate (hemi-malate) salt of N-hydroxy-3-[4-[[[2-(2-methyl-1H-indol-3-yl) ethyl]amino]methyl]phenyl]-2E-2-propenamide”, in data set [2], the approximate aqueous solubility is approximately 1400 µg/mL and the “Form by XRPD of solid residue, Water” value is given as “No change”. Also, the “S (approximate solubility), pH 1” value in [2] (EQ t > 20 hours, ambient temperature, UV-VIS) amounted to 0.42 mg/mL. Also, the “S (approximate solubility), Water” value in data set [2] (EQ t > 20 hours, ambient temperature, gravimetric) was found to be 1380 µg/mL. Moreover, the “Form by XRPD of solid residue, Water” value in data set [2] (listed as malate) is listed as “No structural change”. For the same compound, in data set [3], the “Solid State (EQ 93% r.h.) Form by XRPD” value is listed as “No change”.
On to “2:1 L-tartarate salt of N-hydroxy-3-[4-[[[2-(2-methyl-1H-indol-3-yl)ethyl]amino]methyl]phenyl]-2E-2-propenamide”, for which the “% DP (total degradation products)” value came to 1.2 % area in data set [4] (setting [10]); 1.3 % area in data set [4] (setting [11]); 1.3 % area in [4] (setting [12]); 1.3 % area in data set [4] (setting [13]); 1.3 % area in [4] (setting [14]); 1.3 % area in data set [4] (setting [15]). Besides, the “% DP (total degradation products)” value came to 1.3 % area in data set [4] (setting [16]); 1.3 % area in [4] (setting [17]); 0.6 % area in [4] (Standard, freshly prepared); 0.84 % area in data set [5] (setting [18]); 1.61 % area in data set [5] (setting [19]); 1.36 % area in data set [5] (setting [20]). In addition, the “% DP (total degradation products)” value in data set [5] (setting [21]) is on record as 0.82 % area; in [7] (setting [22]), 0.86 % area; in data set [7] (setting [23]), 1.21 % area; in data set [7] (setting [24]) it was 1.53 % area; in [7] (2% in 0.5% CMC, 1 day at RT) it was 0.62 % area; in data set [7] (setting [25]), 0.54 % area. In addition, the “% DP (total degradation products)” value in data set [7] (setting [26]) is on record as 0.58 % area; in data set [7] (setting [27]) it was 0.54 % area; in data set [7] (setting [28]), 0.71 % area. Further, the “% DS (drug substance)” value in data set [4] (setting [10]) worked out at 98.8 % area; in data set [4] (setting [11]), 98.7 % area; in [4] (setting [12]), 98.7 % area; in data set [4] (setting [13]), 98.7 % area; in [4] (setting [14]), 98.7 % area; in [4] (setting [15]), 98.7 % area. For the same compound, the “% DS (drug substance)” value in [4] (setting [16]) is listed as 98.7 % area; in data set [4] (setting [17]) it was 98.7 % area; in [4] (Standard, freshly prepared), 99.4 % area. Besides, the “stability with all excipient mixtures tested, in words” value in data set [4] (after 2 weeks at 50° C./75% r.h.) is given as “very good stability”. Moreover, the “Bulk stability (XRPD)” value in [5] (80° C.) and in [5] (80° C./75% r.h.) was “no change” in each case. In addition, the assay entry in data set [5] (setting [18]) is “[99.48]”; in data set [5] (setting [19]), “[97.07]”; in data set [5] (setting [20]) it was “[97.66]”; in [5] (setting [21]), “[100.4]”; in data set [7] (setting [22]), “[100.5]”; in data set [7] (setting [23]), “[98.91]”. Further, the assay result is “[96.89]” in data set [7] (2 mg/mL, 100 mM lactate buffer pH 3.5, 1 week at 50° C., external standard); “[79.98]” in data set [7] (2% in 0.5% CMC, 1 day at RT); “[97.54]” in data set [7] (setting [25]); “[96.39]” in data set [7] (setting [26]); “[96.60]” in data set [7] (setting [27]); “[98.39]” in [7] (setting [28]). The “intrinsic dissolution (rate), in words” value in [6] is reported as “good”. The “Intrinsic Dissolution Rate” value in data set [6] (HCl 0.1N) is 1.16 mg min^−1 cm^−2; in data set [6] (Water, free base pellet disintegrated, not true intrinsic rate), 0.38 mg min^−1 cm^−2. Moreover, the “pH of initial mixture” value in data set [7] (2 mg/mL in 100 mM lactate buffer, pH 3.5) was 3.58; in data set [7] (2 mg/mL in water), 6.82. Further, the “CL (appearance)” value in [7] (setting [22]) is on record as “A↓”; in data set [7] (setting [23]), “A↓”; in [7] (setting [24]) it was “A↓*”; in data set [7] (2% in 0.5% CMC, 1 day at RT), “A↓↓”; in data set [7] (setting [28]), “A↓”. Also, the “stability characteristics, in words” value in data set [7] (both in solution and in the solid state) was “very good stability”. Moreover, in data set [7] (unstressed baseline of the stability study), the “Unstressed (% Area)” value is on record as 99.62% Area. In addition, the “pH of saturated solution” value in data set [8] is 6.07; in data set [9], 5.57.

These data come from patent US20110112308A1 (NOVARTIS AG, priority 2006, published 2011).
